Measurements as given in PMC3793977, “High-Throughput Screening (HTS) and Hit Validation to Identify Small Molecule Inhibitors with Activity against NS3/4A proteases from Multiple Hepatitis C Virus Genotypes” (PLoS ONE, 2013).
Where “and” joins values, the source holds several entries; their conditions need not be identical. Equal entries are not always repeated.

How the values were obtained:
[1] = molecular target: T1, NS3/4A protease genotype 1a (Hepatitis C virus genotype 1a, UniProt P27958); test: Inhibition assay with NS3/4A from genotype 1a; format: biochemical; details: IC50 NS3/4A genotype 1a
T1 construct: against the NS3/4A protease domains from three additional HCV genotypes (1a, 2a, and 4d); purchased Anaspec
Description: (§1) The inhibitory activity of the final hit compounds from HTS were tested against three other HCV genotypes (1a, 2a, and 4d), along with a control (genotype 1b) and five NS3 drug-resistant mutants. Eight full-length NS3 mutants (V36M, R155K, A156T, A156S, 156V, V36A, T54A, and R155T) were generated by mutagenesis and purified, and the three HCV NS3/4A protease genotypes were purchased from Anaspec. Unfortunately the enzyme activities of the three mutants V36A, T54A, and R155T were much less than that of the rest of the mutants and were insufficient for testing, therefore mutant studies were done with the five active mutants. Continuous kinetic assays were performed against all hit compounds in the same way as the wild-type NS3/4A. As a control, full-length NS3/4A (genotype 1b) was tested under the same conditions for direct comparison for each plate.

[2] = molecular target: T2, full-length NS3/4A genotype 1b mutant R155K (Hepatitis C virus genotype 1b, UniProt Q9WMX2, R1181K); test: Inhibition assay with drug-resistant mutant R155K; format: biochemical
T2 construct: wild-type HCV NS3 (HCV polyprotein residues 1027–1657); His-tag (N); made in house
Description: (§2) The full-length genes of wild-type HCV NS3 (HCV polyprotein residues 1027–1657) with a his-tag at the N-terminus and NS4A (residues 1658–1711) with no tag were cloned, co-expressed, and purified as described. Eight NS3 drug resistant mutants (V36M, V36A, T54A, R155K, R155T, A156T, A156S, and 156V) were generated by mutagenesis using full-length, wild-type NS3-containing recombinant plasmid (pETDuet-1/FL NS3/4A) as a template. The over-expression and purification of all mutants were performed by the same method as the wild-type with minor modifications.
as §1, with “As a control, full-length NS3/4A (genotype 1b) was tested under the same conditions for direct comparison for each plate.” left out

[3] = molecular target: T3, HCV replicon cell lysate sg 2a (NS3) (Hepatitis C virus genotype 2a, UniProt Q99IB8); test: Whole cell lysate inhibition assay, HCV subgenomic replicon 2a; format: biochemical
T3 construct: expressed in transfected cells; host or cells: Huh7 cells stably replicating the JFH-1 subgenomic replicon; whole cell lysate
Description: Huh7-1 cells (also known as Huh7/scr cells) were obtained from F.V. Chisari (The Scripps Research Institute, La Jolla, CA). Clone B HCV sub-genotype 1b Huh7 cells were obtained from the NIH AIDS Research and Reference Reagent Program and have been previously described. Huh7 cells stably replicating the sub-genotype 2a HCV JFH-1 replicon were generated as previously described. All cells were cultured in complete Dulbecco’s modified Eagle’s medium (DMEM) supplemented with 10% fetal bovine serum, 100 units/mL penicillin, […] streptomycin, and 2 mM L-glutamine. HCV replicon cells were maintained in 500 µg/mL Geneticin (Invitrogen). For NS3 inhibition analysis, lysates from parental Huh7 cells and HCV replicon cells were harvested on ice in pre-chilled FRET cell lysis buffer (50 mM Tris-HCl, pH 7.5; 150 mM NaCl, 2 mM EDTA, 1.25% Triton X-100). Lysates were brought to room temperature and mixed 1∶1 with 2× FRET assay buffer (100 mM Tris-HCl, pH 7.5, 300 mM NaCl, 4 mM EDTA, 2.5% Triton X-100, 10 mM GSH, and 4 µM substrate). Fluorescence intensity was continuously monitored for 1 hour, and IC50 values were determined in the same way as biochemical assays.

full-length NS3/4A = molecular target: T4, full-length NS3/4A (Hepatitis C virus genotype 1b, UniProt Q9WMX2); test: SPR binding assay (dissociation equilibrium constant KD); details: double referenced with blank and unrelated reference protein
T4 construct: wild-type HCV NS3 (HCV polyprotein residues 1027–1657); His-tag (N); made in house
Description: The full-length NS3/4A enzyme was prepared in a storage buffer (50 mM HEPES, pH 7.6, 500 mM NaCl, 1 mM DTT, 0.2% Triton X-100, and 20% glycerol) and immobilized on a CM5 sensor chip using standard amine-coupling at 25°C with running buffer HBS-P (10 mM HEPES, 150 mM NaCl, 0.05% surfactant P-20, pH 7.4) using a Biacore T100 instrument. Flow channels 1 and 3 were activated by 1-ethyl-3-(3-dimethylaminopropyl) carbodiimide hydrocholoride (EDC)/N-hydroxy succinimide (NHS) mixture, and the activated surface was blocked by ethanolamine (pH 8.5) as controls. The NS3/4A enzyme was diluted in 10 mM sodium acetate (pH 5.0), and immobilized to flow channel 4 after sensor surface activation with EDC/NHS with a 7 min injection followed by ethanolamine blocking on unoccupied surface area. NS3/4A immobilization level was ∼8,500 response units (RU). An unrelated reference protein (92 kDa) was also immobilized to flow channel 2 as another control to be compared with NS3/4A (74.6 kDa). Fifteen initial hit compounds were prepared as 10 mM DMSO stock solutions. Compound solutions with a series of increasing concentrations (0–200 µM at 1.5-fold dilution) were applied to all four channels at a 10 µL/min flow rate at 25°C. Sensorgrams were analyzed using Biaevaluation software 2.0.3, and response unit difference (ΔRU) values at each concentration were measured during the equilibration phase. Data were either single referenced with a blank (enthanolamine) or double referenced with both blank and reference protein RU values. SigmaPlot 11.0 was used to fit the data to a single rectangular hyperbolic curve to determine KD values. The hyperbola function, y = ymax·x/(KD+x), was used to plot response units and corresponding concentration, where y is the response, ymax is the maximum response, and x is the compound concentration.

[4] = molecular target: T5, full-length NS3/4A genotype 1b mutant A156V (Hepatitis C virus genotype 1b, UniProt Q9WMX2, A1182V); test: Inhibition assay with drug-resistant mutant A156V; format: biochemical; details: genotype 1b full-length mutant
T5 construct: wild-type HCV NS3 (HCV polyprotein residues 1027–1657); His-tag (N); made in house
Description: as §2
as §1, with “As a control, full-length NS3/4A (genotype 1b) was tested under the same conditions for direct comparison for each plate.” left out

Trypsin = molecular target: T6, Trypsin (Homo sapiens, UniProt P07477); test: Inhibitor selectivity assay, trypsin (fluorometric); format: biochemical
T6 construct: purchased Sigma
Description: To test for selectivity, two human serine proteases, Trypsin and Chymotrypsin (Sigma), were tested with the top two hit compounds from HTS using a fluorometric assay. The fluorogenic substrates used in this study were N-benzoyl-L-Arg-7-amido-4-methylcoumarin (Sigma) and N-succinyl-Ala-Ala-Phe-7-amido-4- methylcoumarin (Sigma) for trypsin and chymotrypsin, respectively. All assays were performed in 384-well black plates (Corning) in a total volume of 24 µL of PBS (pH 7.4) buffer containing 0.01% Triton, 0.1 mg/mL BSA, and 2 mM GSH in triplicate. A series of compound concentrations (0 to 200 µM final concentration at 2-fold serial dilution) in 100% DMSO was prepared in a 384-well plate. 20 µL of trypsin (0.01 mg/mL) and chymotrypsin (0.0001 mg/mL) solutions were distributed into wells, and 0.5 µL of varying concentration of compounds were added and incubated for 10 minutes. The enzyme reaction was initiated by adding 5 µL of the substrate (50 µM final concentration), and fluorescence intensity was continuously monitored at excitation/emission wavelengths of 350 nm/460 nm for 10 minutes.

Cc1cc(NC(=O)Cc2csc(NS(=O)(=O)c3ccccc3)n2)ccc1Br [Compound 12]
IC50 [1]: < 20 µM | IC50 [2]: ≤ 20 µM | fold increase of IC50, whole cell lysate 2a vs biochemical assay ([3]; sg2a lysate compared to purified enzyme): 10–20 fold | IC50 ([3]; whole cell lysate, subgenomic replicon 2a): < 120 µM and 115 µM | SPR binding to NS3/4A, double referenced (full-length NS3/4A): specific binding | IC50 [4]: ≤ 20 µM | inhibition at 100 µM (Trypsin; 100 µM compound, read-out: Trypsin % Inh at 100 µM): 28% | IC50 (Trypsin; human trypsin): > 100 µM
